Data from patent US20260092085A1, “SYNTHETIC TRIPLEX PEPTIDE NUCLEIC ACID-BASED INHIBITORS FOR CANCER THERAPY” (University of Connecticut, priority 2022, published 2026).

Tests used:
miR-155 [1] = test: miR-155 gene expression by RT-PCR in U2932 cells; type: cell-based, human; conditions: U2932, 500 nM, 48 hours, relative to scrambled control
Description: FIGS. 3A-F show cell culture-based functional assay in U2932 lymphoma cells. (3A) γtcPNA-155-TAMRA uptake in the U2932 lymphoma cell line: Representative flow cytometry traces of TAMRA fluorescence in U2932 cells after treatment with 500 nM dose of γtcPNA-155-TAMRA for 48 hours. The data was analyzed by FlowJo software. (3B) Normalized miR-155 gene expression levels in U2932 after treatment with phosphate buffer saline (PBS) as a control and with 500 nM dose of Scr-γtcPNA-155, PNA-155, γPNA-155 and γtcPNA-155 for 48 hours compared to average control U6 (n=3), data represented as mean±standard error mean (SEM), Statistical analysis was performed using Unpaired two-tailed t-test. Further, statistical analysis was performed relative to Scr-γtcPNA-155 treated cells. ***p<0.001. (3C) Gene expression level of miR-155 downstream genes, tumor suppressor proteins (FOXO3A, CUX1, SOCS1, CSF1R, JARID2, SHIP1, PICALM, PDCD4, BACH1, WEE1, TP53TG3, CASP3, PTEN) in U2932 cell line after treatment with PBS as a control and with after treatment with 500 nM of Scr-γtcPNA-155, PNA-155, γPNA-155 and γtcPNA-155 for 48 hours. Data is normalized with average GAPDH control (n=3), and represented as mean±SEM, *p<0.05. Unpaired two-tailed t-test was used for statistical analysis and analysis was performed relative to Scr-γtcPNA-155 treated cells. (3D) Gene expression level of miR-155 downstream genes MCL1 in U2932 cell line after treatment with PBS as a control and 500 nM of Scr-γtcPNA-155, PNA-155, γPNA-155 and γtcPNA-155 for 48 hours. Data is normalized with average GAPDH control (n=3), and represented as mean±SEM, *p<0.05, **p<0.01 and ***p<0.001. […] (3E) Representative western blot of Mcl-1 and its quantification (n=3 technical replicate) and (3F) Caspase-3 protein and its quantification (n=3 technical replicate) in U2932 cell line after treatment with 500 nM of Scr-γtcPNA-155, PNA-155 and γtcPNA-155 for 48 hours. […] Numbers above western blot panels represent relative quantification of the respective bands using ImageJ software and normalized relative to loading control and treatment control. […]

miR-155 downstream genes = test: Gene expression of miR-155 downstream genes by RT-PCR in U2932 cells; type: cell-based, human; conditions: U2932, 500 nM, 48 hours
Description: FIGS. 3A-F show cell culture-based functional assay in U2932 lymphoma cells. (3A) γtcPNA-155-TAMRA uptake in the U2932 lymphoma cell line: Representative flow cytometry traces of TAMRA fluorescence in U2932 cells after treatment with 500 nM dose of γtcPNA-155-TAMRA for 48 hours. The data was analyzed by FlowJo software. (3B) Normalized miR-155 gene expression levels in U2932 after treatment with phosphate buffer saline (PBS) as a control and with 500 nM dose of Scr-γtcPNA-155, PNA-155, γPNA-155 and γtcPNA-155 for 48 hours compared to average control U6 (n=3), data represented as mean±standard error mean (SEM), Statistical analysis was performed using Unpaired two-tailed t-test. Further, statistical analysis was performed relative to Scr-γtcPNA-155 treated cells. ***p<0.001. (3C) Gene expression level of miR-155 downstream genes, tumor suppressor proteins (FOXO3A, CUX1, SOCS1, CSF1R, JARID2, SHIP1, PICALM, PDCD4, BACH1, WEE1, TP53TG3, CASP3, PTEN) in U2932 cell line after treatment with PBS as a control and with after treatment with 500 nM of Scr-γtcPNA-155, PNA-155, γPNA-155 and γtcPNA-155 for 48 hours. Data is normalized with average GAPDH control (n=3), and represented as mean±SEM, *p<0.05. Unpaired two-tailed t-test was used for statistical analysis and analysis was performed relative to Scr-γtcPNA-155 treated cells. (3D) Gene expression level of miR-155 downstream genes MCL1 in U2932 cell line after treatment with PBS as a control and 500 nM of Scr-γtcPNA-155, PNA-155, γPNA-155 and γtcPNA-155 for 48 hours. Data is normalized with average GAPDH control (n=3), and represented as mean±SEM, *p<0.05, **p<0.01 and ***p<0.001. Statistical analysis was performed using Unpaired two-tailed t-test. Analysis was performed relative to Scr-γtcPNA-155 treated cells. (3E) Representative western blot of Mcl-1 and its quantification (n=3 technical replicate) and (3F) Caspase-3 protein and its quantification (n=3 technical replicate) in U2932 cell line after treatment with 500 nM of Scr-γtcPNA-155, PNA-155 and γtcPNA-155 for 48 hours. Data is represented as mean±SEM and unpaired two-tailed t-test was used for statistical analysis. *p<0.05 **p<0.01. Numbers above western blot panels represent relative quantification of the respective bands using ImageJ software and normalized relative to loading control and treatment control.
Gene expression by RT-PCR: 400,000 U2932 cells were seeded in a 12 well plate. The cells were treated with 500 nM PNA-155, gamma tcPNA-155, gamma PNA-155, Scr gamma tcPNA-155 or were PBS treated (control) for 48 hrs in an incubator (37° C. and 5% CO2). The cells were centrifuged at 2000 rpm for 4 mins at 4° C. The total RNA from the cell pellet was extracted using RNeasy® mini kit (Qiagen). The cDNA was prepared in thermal cycler (Bio-rad) using reverse transcriptase, RNase inhibitor, dNTPs, nuclease-free water and RT primers specific for miR-155 and U6. Random primers were used for the preparation of cDNA for downstream targets. The cDNA was amplified using miR-155 assay, U6 assay, or specific downstream target assays in CFX Connect™ Real-time PCR detection system (Bio-rad). The samples were subjected to polymerase activation (95° C. for 10 mins), followed by 40 cycles of denaturation (95° C. for 15 sec) and annealing (60° C. for 1 min). The 2^−ΔΔCT method was used to calculate the fold change in target genes.

[2] = tested on: U2932 subcutaneous tumors; test: Tumor growth in U2932 derived xenograft model; type: in vivo, NSG mice; conditions: intra-tumoral injections days 0, 7, 14
Description: Mouse tumor xenograft: Female NSG mice (NOD.Cg-Prkdcscid Il2rgtm1Wjl/SzJ, strain 005557) weighing 20-23 g were procured from Jackson laboratories. 1×10^7 U2932 cells suspended in RPMI-1640 medium were injected subcutaneously in the right and left flank of 6-week-old NSG mice. The mice developed a small bump in 2 weeks. When the tumor volume reached 100-200 mm^3, the mice were randomly assigned to the treatment group (n=6 per group).
(§1) RNA and Protein extraction from tumor samples: The mice were injected intra-tumorally with 1 mg kg-1 dose of PNA-155, γtcPNA-155, γPNA-155, Scr-γtcPNA-155 or were untreated. The injections were repeated two additional times after 1 week each. The length, breadth, and depth of the tumors were measured daily using a vernier caliper. The mice were euthanized when the tumor volumes reached 2000 mm^3. The resected tumor sections were finely minced using a sterile blade and suspended in dissociation media (4 ml) comprising of RPMI-1640, 1.2 mg/ml dispase, and 0.5 mg/ml collagenase for 90 mins at 500 rpm at 37° C. The dissociated tumors were washed with buffer saline at 2500 rpm (4 mins) at 4° C. and then suspended in 0.25% trypsin for 4 mins at room temperature. RPMI 1640 media was added to the trypsinized tumor mass, and the cells were passed through a 70 um filter. The cells were centrifuged at 2500 rpm for 4 mins at 4° C. The cell pellet was then suspended in 1×RBC lysis buffer (Sigma) and incubated on ice for 10 mins. PBS was added to the cells and the cells were passed through a 40 um filter. The cells were centrifuged at 2500 rpm for 4 mins at 4° C. The cell pellet was resuspended in 0.5% BSA in PBS. The mouse cells were removed from the tumor cells using a mouse cell depletion kit (Miltenyi Biotec) according to the manufacturer's protocol. The enriched tumor cells from each tumor sample were divided into two fractions. RNA for gene expression analysis was extracted from one tumor fraction by the same procedure as mentioned earlier. The protein for western blot analysis was extracted from the second fraction using the method described above.
For the efficacy study, each mouse received three intra-tumoral injections of either γtcPNA-155, γPNA-155 or PNA-155 on days 0, 7, 14. We noticed that the control and scrambled treated tumors reached 2000 mm^3 much faster during our study, so we could not inject a third time in these mice. […] In contrast, as stated earlier, there was no effect on the control and scrambled PNA control on the tumor volume.

miR-155 [3] = test: miR-155 gene expression in U2932 tumor samples after in vivo treatment; set-up: species or system NSG mice; conditions: U2932 xenograft, intra-tumoral
Description: FIGS. 22A-D show in vivo gene expression and protein level analysis. (22A) miR-155 gene expression levels in U2932 tumor samples after in vivo treatment with indicated PNAs. Data was normalized with average control U6 (n=4, data represented as mean±standard error mean). ***p<0.001 (22B) Gene expression level of downstream target genes of miR-155: MCL1 in U2932 tumor samples after treatment with total 3 mg kg-1 dose of Scr-γtcPNA-155, PNA-155, γPNA-155 and γtcPNA-155 and normalized with average control GAPDH (n=3, data represented as mean±SEM), unpaired two-tailed t-test was performed for analysis). *p<0.05, **p<0.01 (22C) Representative western blot of Mcl-1 protein and its quantification (n=3 technical replicate) in U2932 tumor samples treated with total 3 mg kg-1 dose of Scr-γtcPNA-155, PNA-155 and γtcPNA-155. Data is represented as mean±SEM and unpaired two-tailed t-test was performed for analysis. *p<0.05. The relative protein levels were determined from the band intensity using ImageJ software and normalized relative to loading control and treatment control. (22D) Gene expression level of tumor suppressor proteins (FOXO3A, CUX1, SOCS1, CSF1R, JARID2, SHIP1, PICALM, PDCD4, BACH1, CASP3) in U2932 tumor samples after treatment with total 3 mg kg-1 dose of Scr-γtcPNA-155, PNA-155, γPNA-155 and γtcPNA-155 and normalized with average control GAPDH (n=3, data represented as mean±SEM, unpaired two-tailed t-test was performed for statistical analysis). *p<0.05, **p<0.01.
as §1, with “The mouse cells were removed from the tumor cells using a mouse cell depletion kit (Miltenyi Biotec) according to the manufacturer's protocol. The enriched tumor cells from each tumor sample were divided into two fractions. RNA for gene expression analysis was extracted from one tumor fraction by the same procedure as mentioned earlier. The protein for western blot analysis was extracted from the second fraction using the method described above.” left out

## γPNA-155: single-stranded full-length serine gamma PNA binding miR-155 by Watson-Crick pairing, SEQ ID NO: 1 (ACCCCTATCACGATTAGCATTAA; all peptide nucleic acid (PNA); serine gamma-PNA, two arginine residues (X1 RR) at each terminus, further chemistry not fully specified)
miR-155 [1]
  miR-155 inhibition: ~83%
miR-155 downstream genes
  de-repression of miR-155 target tumor suppressor genes: significant de-repression
  reduction in MCL1 gene expression levels: 19%
[2]
  tumor growth / tumor volume: reduced the tumor growth
miR-155 [3]
  decrease in miR-155 gene expression in tumors: 80%
